Results as given in patent US12433860B2, “Treatment of multiple sclerosis comprising DHODH inhibitors” (Immunic AG, priority 2021, dated 2025).
Structures can show the parent of a compound that is named as a salt.

How the values were obtained:
[1] = system: patients with relapsing-remitting multiple sclerosis; assay: EMPhASIS Cohort 1: annualized relapse rate and time-to-first relapse; assay type: in vivo, human; conditions: for adjusted mean annualized relapse rate: baseline until week 24
Procedure: Other secondary endpoints included: the difference in the cumulative number of combined unique active lesions up to week 24 between vidofludimus calcium 45 mg and vidofludimus calcium 30 mg; number or cumulative number of gadolinium-enhancing, T1, or T2 lesions up to 24 weeks; annualized relapse rate from baseline until week 24; proportion of relapse-free patients up to week 24; time-to-first relapse; change in EDSS score from baseline; proportion of patients with EDSS score progression; brain atrophy and other MRI endpoints; and safety and tolerability as assessed by the investigators. Annualized relapse rate was defined as the total number of confirmed relapses divided by the real exposure time in years assessed over the time during the double-blind treatment period. EDSS progression was defined as an increase compared to baseline of at least 1.0 point for patients with a baseline EDSS score of 1.0 to 4.0 or of at least 1.5 points for patients with a baseline EDSS score of 0. Vidofludimus calcium trough concentrations (weeks 6 and 24) were used to assess the correlation between pharmacokinetics and MRI-based assessments. The effects of vidofludimus calcium on serum neurofilament (baseline and week 24) were also analyzed. All other secondary efficacy analyses were reported using descriptive statistics and were considered exploratory. The mean number or cumulative number of gadolinium-enhancing (Gd+), T1, or T2 lesions were summarized descriptively and analyzed with a generalized linear model as described earlier but adjusted for MRI field strength and baseline number of gadolinium-enhancing lesions only. Annualized relapse rate was compared between treatment groups and between the pooled vidofludimus calcium groups and placebo using a generalized linear model adjusted for baseline number of gadolinium-enhancing lesions, which included the offset term for real exposure time. Time-to-first relapse up to 24 weeks was analyzed using a Cox proportional hazards model, with covariates for treatment group and baseline gadolinium-enhancing lesions strata. The proportion of patients free of relapse was estimated using the Kaplan-Meier method. Statistical analyses were done using SAS version 9.4 (SAS Institute, Cary, NC, USA).

[2] = Pre-clinical, clinical and single and multiple-dose Phase 1 studies: safe daily dose; assay type: in vivo; conditions: once daily
[3] = in vivo; cited from earlier work
[4] = system: neurofilament light chain in serum; assay: EMPhASIS: change in serum neurofilament light chain; assay type: in vivo, human; conditions: for Median change in neurofilament light chain in serum from baseline to week 24: placebo 6.5%
Procedure: Other secondary endpoints included: the difference in the cumulative number of combined unique active lesions up to week 24 between vidofludimus calcium 45 mg and vidofludimus calcium 30 mg; number or cumulative number of gadolinium-enhancing, T1, or T2 lesions up to 24 weeks; annualized relapse rate from baseline until week 24; proportion of relapse-free patients up to week 24; time-to-first relapse; change in EDSS score from baseline; proportion of patients with EDSS score progression; brain atrophy and other MRI endpoints; and safety and tolerability as assessed by the investigators. Annualized relapse rate was defined as the total number of confirmed relapses divided by the real exposure time in years assessed over the time during the double-blind treatment period. EDSS progression was defined as an increase compared to baseline of at least 1.0 point for patients with a baseline EDSS score of 1.0 to 4.0 or of at least 1.5 points for patients with a baseline EDSS score of 0. Vidofludimus calcium trough concentrations (weeks 6 and 24) were used to assess the correlation between pharmacokinetics and MRI-based assessments. The effects of vidofludimus calcium on serum neurofilament (baseline and week 24) were also analyzed.
Based on pre-clinical and clinical studies and the single and multiple-dose Phase 1 studies with IMU-838, daily doses of IMU-838 of up to 50 mg once daily are considered safe. […] A post-hoc analysis from EMPhASIS study (see Example 1 and 2) in the non-relapse active subgroup of rrMS patients was conducted. […] Change in mean EDSS from baseline to Week 24 in a non-relapse active subgroup of rrMS patients (patients without relapse between baseline and Week 24).

[5] = system: experimental autoimmune encephalomyelitis; conditions: rodents; cited from earlier work
[6] = system: secretion of interleukin (IL)-17 and IFNγ; conditions: in vitro; cited from earlier work

COc1cccc(-c2ccc(NC(=O)C3=C(C(=O)O)CCC3)c(F)c2)c1 [vidofludimus calcium, 1-cyclopentene-1-carboxylic acid, 2-(((3-fluoro-3′-methoxy(1,1′-biphenyl)-4-yl)amino)carbonyl)-, calcium salt (2:1)]
adjusted mean annualized relapse rate ([1]; 30 mg once daily): 0.39 (95% Cl 0.22-0.69) | hazard ratio for relapse up to 24 weeks ([1]; 30 mg vs placebo): 0.58 (95% Cl: 0.26-1.29) | rate ratio, annualized relapse rate ([1]; 30 mg vs placebo): 0.72 (95% Cl 0.34-1.55) | adjusted mean annualized relapse rate ([1]; 45 mg once daily): 0.48 (95% Cl 0.28-0.82) | hazard ratio for relapse up to 24 weeks ([1]; 45 mg vs placebo): 0.78 (95% Cl: 0.37-1.59) | rate ratio, annualized relapse rate ([1]; 45 mg vs placebo): 0.90 (95% Cl 0.44-1.86) | daily dose considered safe [2]: up to 50 mg | half-life [3]: approximately 30 h | Median change in neurofilament light chain in serum from baseline to week 24 ([4]; 30 mg once daily): −17.0% | decrease in serum neurofilament light chain (NfL), dose comparison ([4]; 45 mg dose, FIG. 3A): greater decrease | Median change in neurofilament light chain in serum from baseline to week 24 ([4]; 45 mg once daily): −20.5% | activity in experimental autoimmune encephalomyelitis [5]: dose-dependent activity | secretion of interleukin (IL)-17 and IFNγ [6]: inhibited
